Consider 20 compounds from patent US20080318943A1, “Compounds and Uses Thereof - 848” (ASTRAZENECA AB, priority 2007, published 2008).

Assay [1] has as its target T1, GABAA2 receptors (α2, β3, γ2 receptor subunits transfected into Sf9 cells) (Homo sapiens, UniProt P18507+P47869).
T1 construct: host or cells: Sf9 cells (membranes)
In words: GABAA2 Binding Method ([3H]-Flunitrazepam displacement). Particulars: [3H]-Flunitrazepam ~2 nM, α2β3γ2 Sf9 membranes, 1 hr at 4° C. The method, boiled down: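 Membranes from Sf9 cells expressing α2β3γ2 GABAA receptors incubated with ~2 nM (final) [3H]-flunitrazepam and test compound 1 h at 4 °C, then filtered on GF/B plates with cold-buffer washes. Flumazenil-defined controls; percent of control, IC50 and Ki calculated.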

In assay [2] the target is T2, GABAA receptor α1β2γ2 (Homo sapiens, UniProt P14867+P18507).
T2 construct: expressed in transfected cells; host or cells: Xenopus laevis oocytes injected with cRNA
As to the kind of experiment: Two-electrode voltage-clamp potentiation of GABA EC10 current in Xenopus oocytes, GABAA1. It counts as cell-based. Particulars: percentage potentiation of GABA EC10 current divided by that of diazepam. The method in brief:
(§1)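 Human GABAA receptors expressed in Xenopus oocytes by cRNA injection (α:β:γ molar ratio ~1:1:10 for α1β2γ2, 1:1:1 for α2β3γ2), recorded 2-10 days later by two-electrode voltage clamp at −60 mV in ND-96, pH 7.5. Modulator preapplied 30 s before GABA at per-oocyte EC10. Peak-current percent potentiation over GABA alone, normalised to diazepam.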
In general terms: In two-electrode clamp one electrode senses voltage and the other passes current.

Assay [3] has as its target T3, GABAA receptor α2β3γ2 (Homo sapiens, UniProt P18507+P47869).
T3 construct: expressed in transfected cells; host or cells: Xenopus laevis oocytes injected with cRNA
As to the kind of experiment: Two-electrode voltage-clamp potentiation of GABA EC10 current in Xenopus oocytes, GABAA2. Particulars: percentage potentiation of GABA EC10 current divided by that of diazepam. It counts as cell-based. The method in brief: as §1

T3 sequence (P47869 29-451): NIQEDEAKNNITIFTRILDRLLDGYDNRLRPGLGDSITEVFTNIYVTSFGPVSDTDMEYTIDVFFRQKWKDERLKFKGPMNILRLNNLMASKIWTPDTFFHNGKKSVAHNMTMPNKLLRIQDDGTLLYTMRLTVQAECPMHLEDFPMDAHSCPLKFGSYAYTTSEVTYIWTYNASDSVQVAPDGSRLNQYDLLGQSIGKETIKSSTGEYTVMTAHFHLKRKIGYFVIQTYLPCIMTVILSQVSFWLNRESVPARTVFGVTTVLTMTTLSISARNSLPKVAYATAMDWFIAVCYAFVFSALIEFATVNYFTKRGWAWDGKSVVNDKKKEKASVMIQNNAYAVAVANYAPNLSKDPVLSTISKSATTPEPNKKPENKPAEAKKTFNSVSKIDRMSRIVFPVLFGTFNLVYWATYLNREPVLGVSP
T3 sequence (P28472 26-473 partner): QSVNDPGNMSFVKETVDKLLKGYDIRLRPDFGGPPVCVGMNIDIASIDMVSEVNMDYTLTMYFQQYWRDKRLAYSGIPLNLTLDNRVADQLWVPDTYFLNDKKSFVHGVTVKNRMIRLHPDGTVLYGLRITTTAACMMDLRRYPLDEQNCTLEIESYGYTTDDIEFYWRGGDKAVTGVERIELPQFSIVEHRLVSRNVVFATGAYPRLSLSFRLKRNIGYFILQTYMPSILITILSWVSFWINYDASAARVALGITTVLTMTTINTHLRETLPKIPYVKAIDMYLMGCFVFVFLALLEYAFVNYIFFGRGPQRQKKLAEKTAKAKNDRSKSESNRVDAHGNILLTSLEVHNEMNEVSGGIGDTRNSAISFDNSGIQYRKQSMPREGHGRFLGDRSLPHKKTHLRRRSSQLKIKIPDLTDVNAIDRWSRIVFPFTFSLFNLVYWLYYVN
T3 sequence (P18507 40-475): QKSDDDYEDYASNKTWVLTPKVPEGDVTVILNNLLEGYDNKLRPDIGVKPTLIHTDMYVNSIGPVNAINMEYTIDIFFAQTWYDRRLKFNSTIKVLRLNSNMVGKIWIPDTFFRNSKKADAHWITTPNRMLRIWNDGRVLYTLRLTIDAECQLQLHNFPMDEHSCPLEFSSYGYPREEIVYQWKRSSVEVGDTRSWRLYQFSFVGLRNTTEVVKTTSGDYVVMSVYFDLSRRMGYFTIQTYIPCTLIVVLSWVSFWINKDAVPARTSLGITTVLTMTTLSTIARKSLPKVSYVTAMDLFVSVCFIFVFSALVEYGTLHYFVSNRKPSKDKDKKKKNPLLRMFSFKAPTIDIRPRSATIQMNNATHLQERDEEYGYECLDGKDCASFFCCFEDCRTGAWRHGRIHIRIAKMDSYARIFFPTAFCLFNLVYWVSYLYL
T1 sequence (P47869 29-451): as the sequence (P47869 29-451) above
T1 sequence (P28472 26-473 partner): as the sequence (P28472 26-473 partner) above
T1 sequence (P18507 40-475): as the sequence (P18507 40-475) above
T2 sequence (P14867 28-456): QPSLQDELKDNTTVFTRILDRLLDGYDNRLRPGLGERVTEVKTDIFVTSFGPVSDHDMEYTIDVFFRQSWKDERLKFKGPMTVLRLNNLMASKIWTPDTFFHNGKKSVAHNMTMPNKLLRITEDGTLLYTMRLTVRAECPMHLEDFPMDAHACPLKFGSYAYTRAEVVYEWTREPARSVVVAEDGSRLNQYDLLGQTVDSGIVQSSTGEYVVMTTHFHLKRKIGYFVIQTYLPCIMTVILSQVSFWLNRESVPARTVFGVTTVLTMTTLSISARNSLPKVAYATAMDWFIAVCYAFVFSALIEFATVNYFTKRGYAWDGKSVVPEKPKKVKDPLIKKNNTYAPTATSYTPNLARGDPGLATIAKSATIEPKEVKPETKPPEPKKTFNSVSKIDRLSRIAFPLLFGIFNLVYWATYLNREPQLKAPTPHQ
T2 sequence (P47870 25-512 partner limits assumed): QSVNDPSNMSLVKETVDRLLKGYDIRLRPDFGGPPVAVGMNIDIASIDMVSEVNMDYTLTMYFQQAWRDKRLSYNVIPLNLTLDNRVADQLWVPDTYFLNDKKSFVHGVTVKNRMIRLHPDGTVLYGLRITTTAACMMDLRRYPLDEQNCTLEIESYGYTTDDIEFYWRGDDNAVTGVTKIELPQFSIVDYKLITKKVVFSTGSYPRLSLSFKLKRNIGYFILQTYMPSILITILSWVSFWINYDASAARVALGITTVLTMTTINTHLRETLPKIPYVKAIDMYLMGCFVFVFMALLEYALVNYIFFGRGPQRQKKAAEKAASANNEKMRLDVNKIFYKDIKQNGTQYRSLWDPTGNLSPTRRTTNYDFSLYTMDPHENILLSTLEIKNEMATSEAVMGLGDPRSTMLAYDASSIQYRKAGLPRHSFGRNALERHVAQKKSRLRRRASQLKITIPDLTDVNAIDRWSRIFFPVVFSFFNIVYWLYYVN
T2 sequence (P18507 40-475): as the sequence (P18507 40-475) above

On to `COc1cccc(-c2cccc3c(N)c4c(nc23)CN(C2CCC2)C4=O)c1C#N` [2-(9-Amino-2-cyclobutyl-1-oxo-2,3-dihydro-1H-pyrrolo[3,4-b]quinolin-5-yl)-6-methoxybenzonitrile], for which the Ki (in general, a dissociation constant, usually derived from enzyme kinetics or from competition with a known ligand) in assay [1] turned out to be 0.905 nM. The “Relative Potentiation for GABAA1” value in assay [2] is −0.016. Besides, the “Relative Potentiation for GABAA2” value in assay [3] is given as 0.18.

Turning to `Nc1c2c(nc3c(-c4cccc(F)c4F)cccc13)CN(C1CC1)C2=O` [9-Amino-2-cyclopropyl-5-(2,3-difluorophenyl)-2,3-dihydropyrrolo[3,4-b]quinolin-1-one], the Ki in assay [1] turned out to be 17 nM. Further, the “Relative Potentiation for GABAA1” value in assay [2] was found to be 0.033. In addition, the “Relative Potentiation for GABAA2” value in assay [3] turned out to be 0.16.

Regarding `Nc1c2c(nc3c(-c4ncccn4)cccc13)CN(C1CCC1)C2=O` [9-Amino-2-cyclobutyl-5-pyrimidin-2-yl-2,3-dihydropyrrolo[3,4-b]quinolin-1-one], the Ki in assay [1] was determined as 8.3 nM. Besides, the “Relative Potentiation for GABAA1” value in assay [2] was found to be 0.013. Moreover, the “Relative Potentiation for GABAA2” value in assay [3] is on record as 0.12.

In the case of `COc1ncccc1-c1c(F)ccc2c(N)c3c(nc12)CN(C1CCC1)C3=O` [9-Amino-2-cyclobutyl-6-fluoro-5-(2-methoxypyridin-3-yl)-2,3-dihydropyrrolo[3,4-b]quinolin-1-one], the Ki in assay [1] was found to be 0.847 nM. In addition, in assay [2], the “Relative Potentiation for GABAA1” value was −0.01. Moreover, the “Relative Potentiation for GABAA2” value in assay [3] came to 0.28.

The compound `Cc1ccc(-c2cccc3c(N)c4c(nc23)CN(C2CCC2)C4=O)c(F)n1` [9-Amino-2-cyclobutyl-5-(2-fluoro-6-methylpyridin-3-yl)-2,3-dihydropyrrolo[3,4-b]quinolin-1-one] returned an inhibitory constant (Ki) in assay [1] of 4.26 nM. The “Relative Potentiation for GABAA1” value in assay [2] is on record as −0.017. The “Relative Potentiation for GABAA2” value in assay [3] was 0.3.

`Nc1c2c(nc3c(-c4cc(F)ccc4F)cccc13)CN(C1CC1)C2=O` [Example 112, 9-Amino-2-cyclopropyl-5-(2,5-difluorophenyl)-2,3-dihydropyrrolo[3,4-b]quinolin-1-one]: the Ki in assay [1] is 6.83 nM. In addition, in assay [2], the “Relative Potentiation for GABAA1” value is listed as −0.034. Moreover, the “Relative Potentiation for GABAA2” value in assay [3] came to 0.13.

In assay [1], `CCCN1Cc2nc3c(-c4ccc(C)nc4Cl)cccc3c(N)c2C1=O` [Example 15, 9-Amino-5-(2-chloro-6-methylpyridin-3-yl)-2-propyl-2,3-dihydropyrrolo[3,4-b]quinolin-1-one] returned an inhibitory constant (Ki) of 7.06 nM. In addition, the “Relative Potentiation for GABAA1” value in assay [2] is 0.29. The “Relative Potentiation for GABAA2” value in assay [3] turned out to be 0.87.

In assay [1], `COc1cc(-c2cccc3c(N)c4c(nc23)CN(C2CCC2)C4=O)c(F)cn1` [9-Amino-2-cyclobutyl-5-(5-fluoro-2-methoxypyridin-4-yl)-2,3-dihydropyrrolo[3,4-b]quinolin-1-one] returned a Ki of 6.7 nM. The “Relative Potentiation for GABAA1” value in assay [2] came to 0.065. The “Relative Potentiation for GABAA2” value in assay [3] was determined as 0.33.

The compound `COc1ccc(F)c(-c2c(F)ccc3c(N)c4c(nc23)CN(C2CC2)C4=O)c1F` [9-Amino-2-cyclopropyl-5-(2,6-difluoro-3-methoxyphenyl)-6-fluoro-2,3-dihydropyrrolo[3,4-b]quinolin-1-one] showed a Ki in assay [1] of 4.12 nM. For the same compound, in assay [2], the “Relative Potentiation for GABAA1” value turned out to be 0.062. The “Relative Potentiation for GABAA2” value in assay [3] is given as 0.17.

With `CCN1Cc2nc3c(-c4ccc(F)cc4OC)cccc3c(N)c2C1=O` [Example 32, 9-Amino-2-ethyl-5-(4-fluoro-2-methoxyphenyl)-2,3-dihydropyrrolo[3,4-b]quinolin-1-one], affinity in assay [1] was put at a Ki of 22.1 nM. Further, in assay [2], the “Relative Potentiation for GABAA1” value is −0.05. Also, the “Relative Potentiation for GABAA2” value in assay [3] was determined as 0.2.

In the case of `CCN1Cc2nc3c(-c4ccc(OC)cc4OC)c(F)ccc3c(N)c2C1=O` [9-Amino-5-(2,4-dimethoxy-phenyl)-2-ethyl-6-fluoro-2,3-dihydropyrrolo[3,4-b]quinolin-1-one], in assay [1], the affinity corresponds to a Ki of 4.84 nM. In assay [2], the “Relative Potentiation for GABAA1” value was found to be 0.072. Also, the “Relative Potentiation for GABAA2” value in assay [3] was 0.11.

Compound `N#Cc1ccccc1-c1cccc2c(N)c3c(nc12)CN(C1CC1)C3=O` [2-(9-Amino-2-cyclopropyl-1-oxo-2,3-dihydro-1H-pyrrolo[3,4-b]quinolin-5-yl)-benzonitrile] registered a Ki in assay [1] of 16.3 nM. The “Relative Potentiation for GABAA1” value in assay [2] is listed as −0.064. The “Relative Potentiation for GABAA2” value in assay [3] was 0.087.

In turn, `COc1cc(F)ccc1-c1cccc2c(N)c3c(nc12)CN(C1CCC1)C3=O` [9-Amino-2-cyclobutyl-5-(4-fluoro-2-methoxyphenyl)-2,3-dihydropyrrolo[3,4-b]quinolin-1-one] yielded a Ki in assay [1] of 8.36 nM. In addition, in assay [2], the “Relative Potentiation for GABAA1” value is recorded as 0.035. Besides, the “Relative Potentiation for GABAA2” value in assay [3] was determined as 0.26.

In assay [1], `CCN1Cc2nc3c(-c4ccc(F)c(OC)c4)cccc3c(N)c2C1=O` [9-Amino-2-ethyl-5-(4-fluoro-3-methoxyphenyl)-2,3-dihydropyrrolo[3,4-b]quinolin-1-one] gave a Ki of 25.5 nM. For the same compound, the “Relative Potentiation for GABAA1” value in assay [2] is given as 0.09. Moreover, the “Relative Potentiation for GABAA2” value in assay [3] is 0.18.

For `COc1ncc(-c2cccc3c(N)c4c(nc23)CN(C2CCC2)C4=O)c(OC)n1` [Example 123, 9-Amino-2-cyclobutyl-5-(2,4-dimethoxypyrimidin-5-yl)-2,3-dihydropyrrolo[3,4-b]quinolin-1-one], the Ki in assay [1] turned out to be 4.23 nM. The results for the “Relative Potentiation for GABAA1” value in assay [2] and in assay [2] (listed as 9-amino-2-cyclobutyl-5-(2,4-dimethoxypyrimidin-5-yl)-2,3-dihydro-1H-pyrrolo[3,4-) were 0.13 and 0.12, respectively. Besides, the “Relative Potentiation for GABAA2” value in assay [3] is 0.44.

`COc1ccc(OC)c(CN2Cc3nc4c(-c5cccnc5OC)cccc4c(N)c3C2=O)c1` [Example 4, 9-Amino-2-(2,5-dimethoxybenzyl)-5-(2-methoxypyridin-3-yl)-2,3-dihydropyrrolo[3,4-b]quinolin-1-one] displayed a Ki in assay [1] of 31.2 nM. Besides, the “Relative Potentiation for GABAA1” value in assay [2] worked out at 0.013. Further, the “Relative Potentiation for GABAA2” value in assay [3] is recorded as 0.18.

In assay [1], `CCCN1Cc2nc3c(-c4ccc(C)nc4C)cccc3c(N)c2C1=O` [9-amino-5-(2,6-dimethylpyridin-3-yl)-2-propyl-2,3-dihydro-1H-pyrrolo[3,4-b]quinolin-1-one] came in with a Ki of 2.63 nM. Further, in assay [2], the “Relative Potentiation for GABAA1” value is reported as 0.45. For the same compound, the “Relative Potentiation for GABAA2” value in assay [3] was determined as 0.41.

`CCN1Cc2nc3c(-c4cccnc4OC)c(F)ccc3c(N)c2C1=O` [Example 58, 9-Amino-2-ethyl-6-fluoro-5-(2-methoxypyridin-3-yl)-2,3-dihydropyrrolo[3,4-b]quinolin-1-one] registered a Ki in assay [1] of 4.08 nM. The “Relative Potentiation for GABAA1” value in assay [2] was −0.055. The “Relative Potentiation for GABAA2” value in assay [3] turned out to be 0.28.

As to `COc1cc(F)ccc1-c1c(F)ccc2c(N)c3c(nc12)CN(C1CCC1)C3=O` [9-Amino-2-cyclobutyl-6-fluoro-5-(4-fluoro-2-methoxyphenyl)-2,3-dihydropyrrolo[3,4-b]quinolin-1-one], the affinity in assay [1] corresponds to a Ki of 1.2 nM. Also, the “Relative Potentiation for GABAA1” value in assay [2] turned out to be 0.0067. Further, the “Relative Potentiation for GABAA2” value in assay [3] worked out at 0.15.

`COc1ccc(CN2Cc3nc4c(-c5cc(C)nn5C)cccc4c(N)c3C2=O)cc1` [9-amino-5-(1,3-dimethyl-1H-pyrazol-5-yl)-2-(4-methoxybenzyl)-2,3-dihydro-1H-pyrrolo[3,4-b]quinolin-1-one] displayed a Ki in assay [1] of 10.3 nM. The “Relative Potentiation for GABAA1” value in assay [2] is 0.45. Also, the “Relative Potentiation for GABAA2” value in assay [3] was determined as 0.64.
